# Legend:
# formalin-injected mice [1] = assay: Formalin test: acute nocifensive behavior; details: pretreatment; ARN16186 10 mg-kg^−1 IP, ARN19702 30 mg-kg^−1 IP; wild-type mice, 1% formalin
# formalin-injected mice [2] = assay: 24-h novel object recognition test (long-term memory) after formalin; format: in vivo, mouse; details: ARN19702 30 mg-kg^−1 IP once daily for 3 days starting 24 h after formalin; PFD14
# Description: The test was conducted over 3 days.
# The test was conducted over 3 days. […] The discriminatory index was calculated as follows: […]
# formalin-injected mice [3] = assay: Formalin-induced chronic pain-like state (CPLS): persistent hypersensitivity to heat and mechanical stimuli; format: in vivo, mouse
# formalin-injected mice [4] = assay: Ex vivo diffusion tensor imaging of spinal cord and forebrain; format: in vivo, mouse; details: ARN19702 30 mg-kg^−1 IP once daily for 3 days starting 24 h after formalin; PFD14
# Description: Magnetic Resonance Imaging (MRI) acquisition: Mice were anesthetized, flushed intracardially with ice-cold PBS and then with 4% PAF in PBS (pH 7.4). Brains and spinal cords were removed within their osseous structures and post-fixed overnight in 4% PAF, followed by three 5-min washes with PBS the next day, and stored in PBS (pH 7.4) containing sodium azide (0.02%, weight) at 4 °C. Ex vivo diffusion tensor imaging (DTI) and T2 weighted imaging ([…]) studies were performed using a 9.4 T Bruker Avance imager (Bruker Biospin, Billerica, USA). Data were acquired with the following parameters: 1.5 cm field of view, 0.5 mm slice thickness, and a 128×128 acquisition matrix and zero filled to 256×256. DTI parameters were as follows: repetition time (TR)/echo time (TE)=8000 ms/35.66 ms, 30 isolinear directions, B=[…], and 5 B0 images acquired prior to weighted images. […] parameters were TR/TE=4000/10 ms with 10 equally spaced echoes. Brain: We used 3D automatic registration for unbiased region parcellation to analyze DTI metrics in brain structures. Scans underwent eddy current correction and brain was digitally removed from surrounding skull and muscles using 3D Pulse-Coupled Neural Networks (PCNN3D v1.2) in MATLAB R2017a (MathWorks). […] The resultant maps were then analyzed in DSI studio (http://dsi-studio.labsolver.org). […]
# [5] = Body-weight gain after formalin; format: in vivo, mouse; details: ARN19702 30 mg-kg^−1 IP once daily for 3 days starting 24 h after formalin; PFD14
# naïve animals = assay: Baseline nociceptive thresholds in naïve animals; format: in vivo, mouse; details: ARN19702 30 mg-kg^−1 IP, ARN16186 10 mg-kg^−1 IP
# [6] = as effectively as does ARN077; cited from earlier work
# formalin-injected mice [7] = assay: Conditioned place preference (spontaneous/ongoing pain) after formalin; format: in vivo, mouse; details: ARN19702 30 mg-kg^−1 IP once daily for 3 days starting 24 h after formalin; PFD14
# Description: Preconditioning: 12 days after tissue damage, mice were placed in the two chamber CPP apparatus (for details see (63)) and the time spent in each chamber was recorded for 10 min and analyzed to determine preconditioning baseline.
# Conditioning: Mice underwent single trial conditioning 24 h after preconditioning using a biased approach. In the morning of the conditioning day, animals received saline and were immediately placed into the preferred chamber (saline paired) of the CPP box for 30 min, with no access to the other chambers. Approximately 4 h later, mice received gabapentin (50 mg-kg^−1, IP) and were immediately confined in the non-preferred chamber for 30 min (gabapentin paired).
# Preference test: On the test day (POD14 or PFD14), 12 h after the afternoon pairing, mice were placed back into the center of the CPP chambers with free access to all chambers for 10 min. Time (s) spent in each chamber was recorded and evaluated by a blind observer to determine preference.
# formalin-injected mice [8] = assay: Elevated plus maze test (anxiety-like behavior) after formalin; format: in vivo, mouse; details: ARN19702 30 mg-kg^−1 IP once daily for 3 days starting 24 h after formalin; PFD7
# Description: (§1) Elevated plus maze test: We placed each mouse in the central platform of the maze, facing the open arm opposite to the experimenter, and behavior was recorded using the Debut video capture software (NCH Software, Canberra, Australia). A blinded observer measured the amount of time spent in the open and closed arms, as well as the number of open and closed arm entries. The open arms of the maze were illuminated at 150-170 lux and the closed arms at 40-50 lux.
# as §1, with “lux. The anxiety index was calculated as follows: […]” for “lux.”
# formalin-injected mice [9] = assay: Formalin-induced paw edema; format: in vivo, mouse
# Description: Paw edema was measured with a digital caliper (Fisher Scientific, USA) and is expressed as the difference (A paw thickness, mm) between ipsilateral and contralateral paws.
# [10] = pretreatment, ARN16186 10 mg-kg^−1 IP, ARN19702 30 mg-kg^−1 IP, wild-type mice, 1% formalin
smiles,measurement,setting,value
CCS(=O)(=O)c1ccccc1C(=O)N1CCN(c2nc3ccc(F)cc3s2)C[C@@H]1C [ARN19702],nocifensive response to formalin,formalin-injected mice [1],prevents
same,memory deficits,formalin-injected mice [2],normalizing
same,protection from CPLS consolidation,formalin-injected mice [3]; ARN19702 30 mg-kg^−1 IP given on PFD1 or PFD5 to PFD9,no such effect
same,protection from CPLS consolidation,formalin-injected mice [3]; ARN19702 30 mg-kg^−1 IP given on PFD2,partially effective
same,protection from CPLS consolidation,formalin-injected mice [3]; ARN19702 30 mg-kg^−1 IP given once on PFD3 or PFD4,full protection
same,sex dependence of the protective effects (contralateral hyperalgesia in female mice),formalin-injected mice [3]; ARN19702 30 mg-kg^−1 IP once daily PFD1 to PFD3,not sex-dependent
same,CPLS consolidation,"formalin-injected mice [3]; ARN19702 30 mg-kg^−1 IP once daily for 3 consecutive days starting 24 h after formalin, male mice",effectively halted
same,evoked hypersensitivity (sensory responses),"formalin-injected mice [3]; ARN19702 30 mg-kg^−1 IP once daily for 3 days starting 24 h after formalin, male mice",normalizing
same,pain behaviors (acute effect),"formalin-injected mice [3]; ARN19702 30 mg-kg^−1 IP, at all time points PFD1 to PFD9",temporarily attenuated
same,transition to CPLS in PPAR-α-null mice,"formalin-injected mice [3]; ARN19702 30 mg-kg^−1 IP, Ppara^−/− mice, PFD14",unaffected
same,persistent hypersensitivity (CPLS) elicited by formalin,"formalin-injected mice [3]; post-injury intrathecal infusion, 30 ng, 5 μL, at PFD2 and PFD4, assessed PFD14",stopped
same,"NAAA-null phenotype (weakened nocifensive response, no inflammation or persistent hypersensitivity after formalin)","formalin-injected mice [3]; pretreatment of wild-type mice, ARN19702 30 mg-kg^−1 IP, ARN16186 10 mg-kg^−1 IP",recapitulated
same,persistent contralateral hyperalgesia (PFD14),formalin-injected mice [3]; [10],prevents
same,CPLS-associated changes in spinal and forebrain DTI measures,formalin-injected mice [4],reversing
same,body-weight gain,[5],normalizing
same,baseline nociceptive thresholds,naïve animals,Neither compound affected
same,nociceptive behavior evoked by formalin or CCI,[6],suppresses
same,ongoing pain,formalin-injected mice [7],normalizing
same,anxiety-like behavior,formalin-injected mice [8],normalizing
same,paw edema (PFD14),formalin-injected mice [9]; [10],prevents
same,paw edema,"formalin-injected mice [9]; three-day ARN19702 regimen (30 mg-kg^−1 IP) after formalin, PFD14",no detectable influence
